# Experimental data as given in patent US11952582B2, “Herbicide-resistance gene and application thereof in plant breeding” (priority 2017, dated 2024).
# Assays:
# [1] = test system: Arabidopsis WT (Col0), OE At, OE Pa, OE M3 lines; test: Arabidopsis seed germination test on herbicide-containing 1/2 MS medium; type: in vivo, Arabidopsis thaliana; conditions: 2 weeks
# Method: In order to evaluate the resistance of different HPPD overexpression lines to herbicides, Arabidopsis seed germination tests were performed on media containing different concentrations of herbicides. T3 generation Arabidopsis seeds and Co10 (WT) seeds were performed steam surface sterilization (concentrated HCl: NaClO=1:5, v/v) for 3 h. Seeds of OE At (OE At #1, OE At #2), OE Pa (OE Pa #1, OE Pa #2), OE M3 (OE M3 #1, OE M3 #2) and Co10 (WT) were dibbled together in ^1/2 MS medium (0.5 x MS salt, 1% sucrose and 0.8% agar) in a 24-well plate, and the medium contained different concentrations (0, 31.25, 62.5, 125, 500 and 2000 nM) of mesotrione (Sigma Aldrich, USA) and sulcotrione (Sigma Aldrich, USA). Then, the plate dibbled seeds was placed in the dark at 4° C. for 3 d, and then transferred to a growth chamber at 22° C. (16 h light/8 h dark) for 2 weeks. Three biological replicates were performed per treatment per species. After 2 weeks, the test results were photographed.
# [2] = target: PaHPPD-SDM (Pseudomonas aeruginosa, UniProt Q9I576, A156V/E349K/R282S); conditions: higher doses in the range 0-60 of herbicide
# Chain of PaHPPD-SDM (Q9I576 whole entry A156V/R282S/E349K): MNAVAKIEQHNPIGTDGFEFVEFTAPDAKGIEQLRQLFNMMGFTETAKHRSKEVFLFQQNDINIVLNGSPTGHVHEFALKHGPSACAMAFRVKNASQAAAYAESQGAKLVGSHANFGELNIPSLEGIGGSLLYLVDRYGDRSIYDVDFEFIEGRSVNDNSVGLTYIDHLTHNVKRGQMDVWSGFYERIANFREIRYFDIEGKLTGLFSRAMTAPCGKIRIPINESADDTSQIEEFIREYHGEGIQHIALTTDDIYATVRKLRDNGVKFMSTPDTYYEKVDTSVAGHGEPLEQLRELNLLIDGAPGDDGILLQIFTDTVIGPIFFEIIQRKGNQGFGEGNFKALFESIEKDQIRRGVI
# From the text: Specifically, the presence of tyrosine aminotransferase in E. coli DH5a can catalyze the production of p-hydroxyphenylpyruvate (4-HPP) from tyrosine, which is used as a substrate for HPPD to produce homogentisic acid (HGA). After further oxidation and polymerization, a brown substance is produced. The addition of HPPD inhibitors will inhibit this reaction, thereby reducing the production of pigment. Therefore, the gradation of pigment can be used as an inhibition index of HPPD activity. […] Through heterologous expression of HPPD mutant genes from different species in E. coli DH5α, the resistance characteristics of E. coli DH5α-mutated gene to triketone herbicides were analyzed by detecting the absorption value of pigment at 405 nm (FIGS. 2-6, 8 and 9).
# The PaHPPD mutants obtained by random mutation was cloned into E. coli cells together with wild-type PaHPPD and AtHPPD for comparation and screening.
# The bacteria solution shaking cultured overnight at 37° C. was centrifuged, and 200 μL of supernatant was transferred to a sterile 96-well plate (microplate with high throughput characteristics) using a 200 μL pipette on an ultra-clean workbench. The pigment content was measured with a microtiter plate reader at a wavelength of 405 nm (OD405 nm), and the HPPD activity was evaluated according to the size of the OD value.
# Then the obtained PaHPPD-SDM mutant was compared with its parental mutants (PaHPPD-M3, PaHPPD-DS18, and PaHPPD-DS73) to understand their ability of brown pigmentation in the presence of triketone herbicides at different doses (0-60 μM). The calculation formula of HPPD activity (%) is as follows: HPPD activity(%)=(Am/Ac)×100
# Wherein Am refers to the average value of the absorbance at a specific herbicide dose, and Ac refers to the average value of the absorbance without the herbicide.
Structure (SMILES),concentration giving albino death / severely inhibited growth ([1]; OE At (two lines) and WT),"concentration at which seedlings grow normally ([1]; OE Pa (two lines), T3 seeds)","resistance by HPPD activity (%) compared with WT, PaHPPD-M3, PaHPPD-DS18 and PaHPPD-DS73 [2]"
CS(=O)(=O)c1ccc(C(=O)C2C(=O)CCCC2=O)c(Cl)c1 [sulcotrione],31.25 nM,62.5 nM,improved the resistance
CS(=O)(=O)c1ccc(C(=O)C2C(=O)CCCC2=O)c(Cl)c1COCC(F)(F)F [tembotrion],,,improved the resistance
